The subject of assay [1] is Monocotyledonous and dicotyledonous test plants. Kind of assay: Herbicidal action before emergence of the plants (pre-emergence action). It is filed as in vivo. Particulars: 2000 g/ha, evaluated after 3 weeks, nine-step scale. As for the experimental part: Monocotyledonous and dicotyledonous test plants are sown in standard soil in plastic pots. Immediately after sowing, the test substances as aqueous suspensions (prepared with a 25% wettable powder (Example F3, b) in accordance with WO 97/34485) or as emulsions (prepared with a 25% emulsion concentrate (Example F1, c)) are sprayed on at a rate of 2 kg of a.i./ha or 250 g of a.i./ha (500 l of water/ha). The test plants are then grown in the greenhouse under optimal conditions. After a test period of 3 weeks, the experiment is evaluated with reference to a nine-step scale (1=complete damage, 9=no effect). Score figures of 1 to 4 (in particular 1 to 3) mean a good to very good herbicidal action.

The test system is the same in assay [2]. As to the kind of experiment: Post-emergence herbicidal action. It is filed as in vivo. The following applies: 2000 g/ha, sprayed in 4- to 6-leaf stage, evaluated after approximately 18 days, nine-step scale. As for the experimental part:
Monocotyledonous and dicotyledonous test plants are grown in the greenhouse in plastic pots containing standard soil, and, in the 4- to 6-leaf stage, sprayed with an aqueous suspension of the test substances of the formula I prepared with a 25% wettable powder (Example F3, b) in accordance with WO 97/34485) or with an emulsion of the test substances of the formula I prepared with a 25% emulsion concentrate (Example F1, c) in accordance with WO 97/34485), corresponding to a rate of 2 kg of a.i./ha or 250 g of a.i./ha (500 l of water/ha). The test plants are subsequently grown on in the greenhouse under optimal conditions. After a test period of approximately 18 days, the test is evaluated with reference to a nine-step scale (1=complete damage, 9=no effect). Score figures of 1 to 4 (in particular 1 to 3) mean a good to very good herbicidal action. In this test, the compounds of the formula I show a potent herbicidal action.

As for `Cc1nc(C(F)(F)F)ccc1C(=O)C1=C(O)C(C)CCC1=O` (stereo not drawn) [Compound A2-B2], in assay [1], the “pre-emergence action, Cyperus” value was found to be 1; the “pre-emergence action, Ipomoea” value came out at 1; the “pre-emergence action, Setaria” value is reported as 1; the “pre-emergence action, Sinapis” value is reported as 1. In assay [1], the “pre-emergence action, Solanum” value stood at 1 and the “pre-emergence action, Stellaria” value is 2. Also, in assay [2], the “Post-emergence action, Ipomoea” value was 1; the “Post-emergence action, Lolium” value stood at 2; the “Post-emergence action, Setaria” value is 2; the “Post-emergence action, Sinapis” value amounted to 1. Also, in assay [2], the “Post-emergence action, Solanum” value is listed as 2 and the “Post-emergence action, Stellaria” value worked out at 2.

On to `CCC1(C)CCC(=O)C(C(=O)c2ccc(C(F)(F)F)nc2C)=C1O` (stereo not drawn) [Compound A2-B25], for which, in assay [1], the “pre-emergence action, Cyperus” value was determined as 2; the “pre-emergence action, Ipomoea” value was 3; the “pre-emergence action, Setaria” value was determined as 2; the “pre-emergence action, Sinapis” value was 2. In assay [1], the “pre-emergence action, Solanum” value is 1 and the “pre-emergence action, Stellaria” value turned out to be 2. In assay [2], the “Post-emergence action, Ipomoea” value was found to be 1; the “Post-emergence action, Lolium” value is 2; the “Post-emergence action, Setaria” value was determined as 2; the “Post-emergence action, Sinapis” value is 2. In assay [2], the “Post-emergence action, Solanum” value turned out to be 1 and the “Post-emergence action, Stellaria” value was 2.

`Cc1nc(C(F)(F)F)ccc1C(=O)C1=C(O)C(C)(S(C)(=O)=O)CCC1=O` (stereo not drawn) [Compound A2-B31]: in assay [1], the “pre-emergence action, Cyperus” value was determined as 2; the “pre-emergence action, Ipomoea” value amounted to 3; the “pre-emergence action, Setaria” value was 4; the “pre-emergence action, Sinapis” value came to 2. In assay [1], the “pre-emergence action, Solanum” value was determined as 1 and the “pre-emergence action, Stellaria” value is recorded as 2. In assay [2], the “Post-emergence action, Ipomoea” value stood at 2; the “Post-emergence action, Lolium” value came to 2; the “Post-emergence action, Setaria” value was 2; the “Post-emergence action, Sinapis” value is on record as 1. For the same compound, in assay [2], the “Post-emergence action, Solanum” value is listed as 2 and the “Post-emergence action, Stellaria” value is 2.

Take `COC1(C)CCC(=O)C(C(=O)c2ccc(C(F)(F)F)nc2C)=C1O` (stereo not drawn) [Compound A2-B33]: in assay [1], the “pre-emergence action, Cyperus” value was 1; the “pre-emergence action, Ipomoea” value was 3; the “pre-emergence action, Setaria” value came out at 2; the “pre-emergence action, Sinapis” value came out at 2. Moreover, in assay [1], the “pre-emergence action, Solanum” value worked out at 1 and the “pre-emergence action, Stellaria” value was 3. Also, in assay [2], the “Post-emergence action, Ipomoea” value came to 2; the “Post-emergence action, Lolium” value is recorded as 4; the “Post-emergence action, Setaria” value is reported as 2; the “Post-emergence action, Sinapis” value was determined as 1. In assay [2], the “Post-emergence action, Solanum” value amounted to 2 and the “Post-emergence action, Stellaria” value is 2.

Take `COC(=O)C1(C)CCC(=O)C(C(=O)c2ccc(C(F)(F)F)nc2C)=C1O` (stereo not drawn) [Compound A2-B34]: in assay [1], the “pre-emergence action, Cyperus” value is 1; the “pre-emergence action, Ipomoea” value was found to be 3; the “pre-emergence action, Setaria” value came to 2; the “pre-emergence action, Sinapis” value is 2. In assay [1], the “pre-emergence action, Solanum” value worked out at 1 and the “pre-emergence action, Stellaria” value came out at 2. Further, in assay [2], the “Post-emergence action, Ipomoea” value was 1; the “Post-emergence action, Lolium” value is recorded as 3; the “Post-emergence action, Setaria” value is given as 2; the “Post-emergence action, Sinapis” value was determined as 1. Besides, in assay [2], the “Post-emergence action, Solanum” value was determined as 1 and the “Post-emergence action, Stellaria” value came out at 2.

Regarding `CCOC(=O)C1(C)CCC(=O)C(C(=O)c2ccc(C(F)(F)F)nc2C)=C1O` (stereo not drawn) [Compound A2-B35], in assay [1], the “pre-emergence action, Cyperus” value is 2; the “pre-emergence action, Ipomoea” value came out at 4; the “pre-emergence action, Setaria” value stood at 2; the “pre-emergence action, Sinapis” value was found to be 2. For the same compound, in assay [1], the “pre-emergence action, Solanum” value is reported as 2 and the “pre-emergence action, Stellaria” value was 2. In assay [2], the “Post-emergence action, Ipomoea” value came out at 1; the “Post-emergence action, Lolium” value turned out to be 3; the “Post-emergence action, Setaria” value is 2; the “Post-emergence action, Sinapis” value is on record as 1. Besides, in assay [2], the “Post-emergence action, Solanum” value was 1 and the “Post-emergence action, Stellaria” value was 2.

In the case of `Cc1nc(C(F)(F)F)ccc1C(=O)C1=C(O)C(C(C)C)CC(C)C1=O` (stereo not drawn) [Compound A2-B49], in assay [1], the “pre-emergence action, Cyperus” value is recorded as 2; the “pre-emergence action, Ipomoea” value is 4; the “pre-emergence action, Setaria” value worked out at 2; the “pre-emergence action, Sinapis” value came out at 2. Also, in assay [1], the “pre-emergence action, Solanum” value came out at 1 and the “pre-emergence action, Stellaria” value came out at 2. Also, in assay [2], the “Post-emergence action, Ipomoea” value is listed as 2; the “Post-emergence action, Lolium” value turned out to be 2; the “Post-emergence action, Setaria” value is recorded as 2; the “Post-emergence action, Sinapis” value is 1. Moreover, in assay [2], the “Post-emergence action, Solanum” value was found to be 2 and the “Post-emergence action, Stellaria” value is reported as 2.

Turning to `Cc1nc(C(F)(F)F)ccc1C(=O)C1=C(O)C(C)(C)CC(C)C1=O` (stereo not drawn) [Compound A2-B68], in assay [1], the “pre-emergence action, Cyperus” value was 1; the “pre-emergence action, Ipomoea” value is 2; the “pre-emergence action, Setaria” value turned out to be 1; the “pre-emergence action, Sinapis” value is reported as 2. Further, in assay [1], the “pre-emergence action, Solanum” value came to 1 and the “pre-emergence action, Stellaria” value is 2. Further, in assay [2], the “Post-emergence action, Ipomoea” value turned out to be 1; the “Post-emergence action, Lolium” value is 2; the “Post-emergence action, Setaria” value is 2; the “Post-emergence action, Sinapis” value was found to be 1. For the same compound, in assay [2], the “Post-emergence action, Solanum” value is 1 and the “Post-emergence action, Stellaria” value worked out at 2.

For the compound `CCC1(C)CC(C)C(=O)C(C(=O)c2ccc(C(F)(F)F)nc2C)=C1O` (stereo not drawn) [Compound A2-B69], in assay [1], the “pre-emergence action, Cyperus” value was determined as 1; the “pre-emergence action, Ipomoea” value came to 4; the “pre-emergence action, Setaria” value stood at 2; the “pre-emergence action, Sinapis” value amounted to 2. Besides, in assay [1], the “pre-emergence action, Solanum” value came out at 1 and the “pre-emergence action, Stellaria” value is given as 1. Moreover, in assay [2], the “Post-emergence action, Ipomoea” value turned out to be 1; the “Post-emergence action, Lolium” value was determined as 2; the “Post-emergence action, Setaria” value is on record as 2; the “Post-emergence action, Sinapis” value was 1. Further, in assay [2], the “Post-emergence action, Solanum” value is given as 2 and the “Post-emergence action, Stellaria” value was determined as 2.

For the compound `CSC1(C)CC(C)C(=O)C(C(=O)c2ccc(C(F)(F)F)nc2C)=C1O` (stereo not drawn) [Compound A2-B73], in assay [1], the “pre-emergence action, Cyperus” value is 3; the “pre-emergence action, Ipomoea” value is 4; the “pre-emergence action, Setaria” value worked out at 2; the “pre-emergence action, Sinapis” value stood at 2. Further, in assay [1], the “pre-emergence action, Solanum” value was found to be 2 and the “pre-emergence action, Stellaria” value is 2. In addition, in assay [2], the “Post-emergence action, Ipomoea” value is listed as 1; the “Post-emergence action, Lolium” value turned out to be 3; the “Post-emergence action, Setaria” value was 2; the “Post-emergence action, Sinapis” value is 1. Further, in assay [2], the “Post-emergence action, Solanum” value was found to be 1 and the “Post-emergence action, Stellaria” value was 2.

For the compound `Cc1nc(C(F)(F)F)ccc1C(=O)C1=C(O)C(C)(S(C)(=O)=O)CC(C)C1=O` (stereo not drawn) [Compound A2-B75], in assay [1], the “pre-emergence action, Cyperus” value was found to be 2; the “pre-emergence action, Ipomoea” value was found to be 3; the “pre-emergence action, Setaria” value was 2; the “pre-emergence action, Sinapis” value came out at 2. For the same compound, in assay [1], the “pre-emergence action, Solanum” value was 1 and the “pre-emergence action, Stellaria” value was found to be 2. For the same compound, in assay [2], the “Post-emergence action, Ipomoea” value amounted to 2; the “Post-emergence action, Lolium” value is reported as 2; the “Post-emergence action, Setaria” value amounted to 3; the “Post-emergence action, Sinapis” value amounted to 1. In assay [2], the “Post-emergence action, Solanum” value was determined as 2 and the “Post-emergence action, Stellaria” value came to 2.

On to `Cc1nc(C(F)(F)F)ccc1C(=O)C1=C(O)C(C)(C)CC(C)(C)C1=O` [Compound A2-B90], for which, in assay [1], the “pre-emergence action, Cyperus” value is 1; the “pre-emergence action, Ipomoea” value is recorded as 1; the “pre-emergence action, Setaria” value amounted to 1; the “pre-emergence action, Sinapis” value is 1. In addition, in assay [1], the “pre-emergence action, Solanum” value is 1 and the “pre-emergence action, Stellaria” value is recorded as 1. For the same compound, in assay [2], the “Post-emergence action, Ipomoea” value was 1; the “Post-emergence action, Lolium” value was 2; the “Post-emergence action, Setaria” value is on record as 2; the “Post-emergence action, Sinapis” value is listed as 1. In addition, in assay [2], the “Post-emergence action, Solanum” value worked out at 2 and the “Post-emergence action, Stellaria” value amounted to 2.
